Measurements: US10294226B2, “Small molecule inhibitors of the JAK family of kinases” (Janssen Pharmaceutica NV, priority 2016, dated 2019)

How the values were obtained:
IL-2 pSTAT5 (JAK1/JAK3) = IL-2 pSTAT5 (JAK1/JAK3) cellular assay, AlphaLISA in PBMCs; assay type: cell-based; settings: PBMC, IL-2 5 ng/mL
Method: The AlphaLISA assay (based on Alpha Technology from PerkinElmer) was performed by first plating freshly thawed PBMCs (Biological Specialty Corporation) in 384-well plates at 30,000 cells per 4 μL per well in HBSS (Hanks' Balanced Salt Solution) containing 0.1% IgG (immunoglobulin G)-free, protease-free BSA (bovine serum albumin) (Jackson ImmunoResearch Cat. No. 001-000-161). The cells were then treated with 2 μL/well of compounds diluted in DMSO at half-log titrated concentrations, with a highest test concentration of 10 μM and 0.5% final DMSO concentration, for thirty minutes at 37° C. […] The cellular reactions were terminated by the addition of 2 μL/well of lysis buffer (PerkinElmer Cat. No. ALSU-PST5-A10K) followed by an incubation of five minutes at room temperature. 5 μL/well of acceptor mix (PerkinElmer Cat. No. ALSU-PST5-A10K) was added to the cells and incubated in the dark for one hour at room temperature. Then, 5 μL/well of donor mix (PerkinElmer Cat. No. ALSU-PST5-A10K) was added to the cells and incubated in the dark overnight at room temperature. Finally, the plates were read on a PerkinElmer EnVision for detection of the time-resolved fluorescence signal. The percentage of IL-2-dependent pSTAT5 inhibition was determined at the compound test concentrations; and for each compound, a dose curve was generated and the IC50 was calculated. Compound IC50 was calculated by nonlinear regression, sigmoidal dose response analysis of the half-log dilution titration curve of the compound concentration vs. Alpha signal. The acronym “Alpha” stands for amplified luminescent proximity homogeneous assay; the Alpha signal is a luminescent/fluorescent signal.

[1] = tested on: GM-CSF pSTAT5 (JAK2/JAK2); assay: GM-CSF pSTAT5 (JAK2/JAK2) cellular assay, AlphaLISA in PBMCs; assay type: cell-based; settings: PBMC, GM-CSF 11 pg/mL
Method: The AlphaLISA assay (based on Alpha Technology from PerkinElmer) was performed by first plating freshly thawed PBMCs (Biological Specialty Corporation) in 384-well plates at 30,000 cells per 4 μL per well in HBSS containing 0.1% IgG-free, protease-free BSA (Jackson ImmunoResearch Cat. No. 001-000-161). The cells were then treated with 2 μL/well of compounds diluted in DMSO at half-log titrated concentrations, with a highest test concentration of 10 μM and 0.5% final DMSO concentration, for thirty minutes at 37° C. Next, the cells were stimulated with 2 μL/well of GM-CSF (R&D Systems Cat. No. 215-GM-050) at 11 pg/mL for fifteen minutes at 37° C. The cellular reactions were terminated by the addition of 2 μL/well of lysis buffer (PerkinElmer Cat. No. ALSU-PST5-A10K) followed by an incubation of five minutes at room temperature. 5 μL/well of acceptor mix (PerkinElmer Cat. No. ALSU-PST5-A10K) was added to the cells and incubated in the dark for one hour at room temperature. Then, 5 μL/well of donor mix (PerkinElmer Cat. No. ALSU-PST5-A10K) was added to the cells and incubated in the dark overnight at room temperature. Finally, the plates were read on a PerkinElmer EnVision for detection of the time-resolved fluorescence signal. The percentage of GM-CSF-dependent pSTAT5 inhibition was determined at the compound test concentrations; and for each compound, a dose curve was generated and the IC50 was calculated. Compound IC50 was calculated by nonlinear regression, sigmoidal dose response analysis of the half-log dilution titration curve of the compound concentration vs. Alpha signal. The term “Alpha” is defined in the IL-2 pSTAT5 (JAK1/JAK3) cellular assay description.

IFNα pSTAT4 (JAK1/TYK2) = IFNα pSTAT4 (JAK1/TYK2) cellular assay, AlphaLISA in PBMCs; assay type: cell-based; settings: PBMC, IFNα 4 ng/mL
Method: The AlphaLISA assay (based on Alpha Technology from PerkinElmer) was performed by first plating freshly thawed PBMCs (Biological Specialty Corporation) in 384-well plates at 100,000 cells per 6 μL per well in DMEM (Dulbecco's Modified Eagle Medium) containing 10% FBS (fetal bovine serum) and 1,000 I.U./mL penicillin and 1,000 μg/mL streptomycin. The cells were then treated with 2 μL/well of compounds diluted in DMSO at half-log titrated concentrations, with a highest test concentration of 10 μM and 0.5% final DMSO concentration, for thirty minutes at 37° C. Next, the cells were stimulated with 2 μL/well of IFNα (PBL Assay Science Cat. No. 11101-2) at 4 ng/mL for thirty minutes at 37° C. The cellular reactions were terminated by the addition of 2 μL/well of lysis buffer (PerkinElmer Cat. No. ALSU-PST4-A10K) followed by an incubation of five minutes at room temperature. 4 μL/well of acceptor mix (PerkinElmer Cat. No. ALSU-PST4-A10K) was added to the cells and incubated in the dark for one hour at room temperature. Then, 4 μL/well of donor mix (PerkinElmer Cat. No. ALSU-PST4-A10K) was added to the cells and incubated in the dark overnight at room temperature. Finally, the plates were read on a PerkinElmer EnVision for detection of the time-resolved fluorescence signal. The percentage of IFNα-dependent pSTAT4 inhibition was determined at the compound test concentrations; and for each compound, a dose curve was generated and the IC50 was calculated. Compound IC50 was calculated by nonlinear regression, sigmoidal dose response analysis of the half-log dilution titration curve of the compound concentration vs. Alpha signal. The term “Alpha” is defined in the immediately preceding cellular assay description.

P-gp (MDR1) = assay: MDCK-MDR1 permeability assay; assay type: in vitro ADME; settings: dog, MDCK-MDR1, pH 7.4, with elacridar 2 μM, @ 5 μM, apical to basolateral, with P-gp inhibitor elacridar (2 μM); read-out: MDCK-MDR1 P^eapp(A-B)
Method: Permeability measurements were conducted according to the Cyprotex protocol using the MDCK-MDR1 cell line obtained from the NIH (Rockville, Md., USA). […] The cells in this assay form a cohesive sheet of a single cell layer filing the surface area of the culture dish, also known as a confluent monolayer, and on day four the test compound was added to the apical side of the membrane and the transport of the compound across the monolayer was monitored over a time period of 60 min.
Test compounds were dissolved in DMSO at a concentration of 10 mM. The dosing solutions were prepared by diluting test compound with assay buffer (Hanks Balanced Salt Solution), pH 7.4, at a final concentration of 5 μM. For assessment of apical to basolateral (“A-B”) permeability, buffer was removed from the apical compartment and replaced with test compound dosing solution with or without the permeability glycoprotein (“PgP”, “P-gP”, “Pgp” or “P-gp”) inhibitor elacridar (2 μM). For assessment of basolateral to apical (“B-A”) permeability, buffer was removed from the companion plate and replaced with test compound dosing solution. Incubations were carried out in duplicate at 37° C. in an atmosphere of 5% CO2 with a relative humidity of 95%. […] After incubation for 60 minutes, apical and basolateral samples were diluted and test compounds quantified by LC/MS/MS using an 8-point calibration in the range 0.0039 to 3 μM with appropriate dilution of the samples (receiver dilution factor=1; donor and C0 dilution factor=10). The permeability coefficient (Papp) for each compound was calculated from the following equation: Papp=(dQ/dt)/(C0×S), where dQ/dt is the rate of permeation of the drug across the cells, C0 is the donor compartment concentration at time zero, and S is the area of the cell monolayer.
The percent recovery was measured for all incubation conditions.
Papp(A-B) gives an indication of permeation extent across the cells in this assay, which is envisaged to model the transcellular transport across Pgp-expressing cells, such as Pgp-expressing gastrointestinal tract cells.
The integrity of each monolayer was monitored by examining the permeation of lucifer yellow by fluorimetric analysis.

[2] = pH 6.5

CC(C)(O)CNC(=O)Cc1nc2cnc3[nH]ccc3c2n1[C@H]1CC[C@H](CC#N)CC1 [Ex. 1, 2-(1-((1r,4r)-4-(Cyanomethyl)cyclohexyl)-1,6-dihydroimidazo[4,5-d]pyrrolo[2,3-b]pyridin-2-yl)-N-(2-hydroxy-2-methylpropyl)acetamide] showed an IC50 (IL-2 pSTAT5 (JAK1/JAK3)) of 0.0216 µM, an IC50 [1] of 0.0839 µM and an IC50 (IFNα pSTAT4 (JAK1/TYK2)) of 0.0595 µM. For the same molecule, the Papp A→B at 60 min, 5 μM (P-gp (MDR1)) was 11 nm/s.

N#CC[C@H]1CC[C@H](n2c(-c3c[nH]cn3)nc3cnc4[nH]ccc4c32)CC1 [Ex. 2, 2-((1r,4r)-4-(2-(1H-Imidazol-4-yl)imidazo[4,5-d]pyrrolo[2,3-b]pyridin-1(6H)-yl)cyclohexyl)acetonitrile] gave an IC50 (IL-2 pSTAT5 (JAK1/JAK3)) of 0.009 µM, an IC50 [1] of 0.061 µM and an IC50 (IFNα pSTAT4 (JAK1/TYK2)) of 0.0208 µM. For the same molecule, the Papp A→B at 60 min, 5 μM (P-gp (MDR1)) was 16 nm/s and the SIF solubility [2] was over 400 µM.

N#CC[C@H]1CC[C@H](n2c(CC(=O)NCC3CC3)nc3cnc4[nH]ccc4c32)CC1 [Ex. 3, 2-(1-((1r,4r)-4-(Cyanomethyl)cyclohexyl)-1,6-dihydroimidazo[4,5-d]pyrrolo[2,3-b]pyridin-2-yl)-N-(cyclopropylmethyl)acetamide] gave an IC50 (IL-2 pSTAT5 (JAK1/JAK3)) of 0.0064 µM, an IC50 [1] of 0.0219 µM and an IC50 (IFNα pSTAT4 (JAK1/TYK2)) of 0.0101 µM. It also gave a Papp A→B at 60 min, 5 μM (P-gp (MDR1)) of 23 nm/s and an SIF solubility [2] of over 400 µM.

N#CCCNC(=O)Cc1nc2cnc3[nH]ccc3c2n1[C@H]1CC[C@H](CC#N)CC1 [Ex. 4, N-(2-Cyanoethyl)-2-(1-((1r,4r)-4-(cyanomethyl)cyclohexyl)-1,6-dihydroimidazo[4,5-d]pyrrolo[2,3-b]pyridin-2-yl)acetamide] showed an IC50 (IL-2 pSTAT5 (JAK1/JAK3)) of 0.0355 µM, an IC50 [1] of 0.119 µM and an IC50 (IFNα pSTAT4 (JAK1/TYK2)) of 0.0647 µM. It also gave a Papp A→B at 60 min, 5 μM (P-gp (MDR1)) of 5 nm/s and an SIF solubility [2] of over 400 µM.

N#CC[C@H]1CC[C@H](n2c(CC(=O)NC3CCOCC3)nc3cnc4[nH]ccc4c32)CC1 [Ex. 5, 2-(1-((1r,4r)-4-(Cyanomethyl)cyclohexyl)-1,6-dihydroimidazo[4,5-d]pyrrolo[2,3-b]pyridin-2-yl)-N-(tetrahydro-2H-pyran-4-yl)acetamide] gave an IC50 (IL-2 pSTAT5 (JAK1/JAK3)) of 0.0064 µM, an IC50 [1] of 0.0289 µM and an IC50 (IFNα pSTAT4 (JAK1/TYK2)) of 0.0381 µM. It also gave a Papp A→B at 60 min, 5 μM (P-gp (MDR1)) of 7 nm/s.

N#CC[C@H]1CC[C@H](n2c(CC(=O)NCC3CCOCC3)nc3cnc4[nH]ccc4c32)CC1 [Ex. 6, 2-(1-((1r,4r)-4-(Cyanomethyl)cyclohexyl)-1,6-dihydroimidazo[4,5-d]pyrrolo[2,3-b]pyridin-2-yl)-N-((tetrahydro-2H-pyran-4-yl)methyl)acetamide] showed an IC50 (IL-2 pSTAT5 (JAK1/JAK3)) of 0.0067 µM, an IC50 [1] of 0.0251 µM and an IC50 (IFNα pSTAT4 (JAK1/TYK2)) of 0.0394 µM. For the same molecule, the Papp A→B at 60 min, 5 μM (P-gp (MDR1)) was 9 nm/s and the SIF solubility [2] was over 400 µM.

In the case of CC(C)(C#N)CNC(=O)Cc1nc2cnc3[nH]ccc3c2n1[C@H]1CC[C@H](CC#N)CC1 [Ex. 7, N-(2-Cyano-2-methylpropyl)-2-(1-((1r,4r)-4-(cyanomethyl)cyclohexyl)-1,6-dihydroimidazo[4,5-d]pyrrolo[2,3-b]pyridin-2-yl)acetamide], the IC50 (IL-2 pSTAT5 (JAK1/JAK3)) is reported as 0.0097 µM, the IC50 [1] is reported as 0.0673 µM and the IC50 (IFNα pSTAT4 (JAK1/TYK2)) is reported as 0.0385 µM. For the same molecule, the Papp A→B at 60 min, 5 μM (P-gp (MDR1)) was 12 nm/s.

N#CC[C@H]1CC[C@H](n2c(CC(=O)NCC3(O)CCC3)nc3cnc4[nH]ccc4c32)CC1 [Ex. 8, 2-(1-((1r,4r)-4-(Cyanomethyl)cyclohexyl)-1,6-dihydroimidazo[4,5-d]pyrrolo[2,3-b]pyridin-2-yl)-N-((1-hydroxycyclobutyl)methyl)acetamide] gave an IC50 (IL-2 pSTAT5 (JAK1/JAK3)) of 0.0206 µM, an IC50 [1] of 0.0338 µM and an IC50 (IFNα pSTAT4 (JAK1/TYK2)) of 0.0428 µM. It also gave a Papp A→B at 60 min, 5 μM (P-gp (MDR1)) of 5 nm/s and an SIF solubility [2] of over 400 µM.

Work on N#CCC12CCC(NC(=O)Cc3nc4cnc5[nH]ccc5c4n3[C@H]3CC[C@H](CC#N)CC3)(CC1)C2 [Ex. 10, N-(4-(Cyanomethyl)bicyclo[2.2.1]heptan-1-yl)-2-(1-((1r, 4r)-4-(cyanomethyl)cyclohexyl)-1,6-dihydroimidazo[4,5-d]pyrrolo[2,3-b]pyridin-2-yl)acetamide] yielded an IC50 (IL-2 pSTAT5 (JAK1/JAK3)) of 0.0168 µM, an IC50 [1] of 0.0446 µM and an IC50 (IFNα pSTAT4 (JAK1/TYK2)) of 0.0404 µM. For the same molecule, the Papp A→B at 60 min, 5 μM (P-gp (MDR1)) was 11 nm/s.

In the case of N#CC[C@H]1CC[C@H](n2c(CC(=O)NCC3(O)CC3)nc3cnc4[nH]ccc4c32)CC1 [Ex. 12, 2-(1-((1r,4r)-4-(Cyanomethyl)cyclohexyl)-1,6-dihydroimidazo[4,5-d]pyrrolo[2,3-b]pyridin-2-yl)-N-((1-hydroxycyclopropyl)methyl)acetamide], the IC50 (IL-2 pSTAT5 (JAK1/JAK3)) is reported as 0.0139 µM, the IC50 [1] is reported as 0.0754 µM and the IC50 (IFNα pSTAT4 (JAK1/TYK2)) is reported as 0.0814 µM. It also gave a Papp A→B at 60 min, 5 μM (P-gp (MDR1)) of 6 nm/s and an SIF solubility [2] of over 400 µM.
